Positions count from the first letter of the chain named.
How the values were obtained:
Format in all cases: cell-based
GPR139 L87F2x64 = target: T1, GPR139 L87F2x64 (Homo sapiens, UniProt Q6DWJ6, L87F); test: Fluo-4 Ca2+-assay, GPR139 mutant L87F
T1 construct: mGluR5 signal peptide (N); expressed in transfected cells; host or cells: HEK293
T1 sequence (Q6DWJ6 2-353 L87F limits assumed): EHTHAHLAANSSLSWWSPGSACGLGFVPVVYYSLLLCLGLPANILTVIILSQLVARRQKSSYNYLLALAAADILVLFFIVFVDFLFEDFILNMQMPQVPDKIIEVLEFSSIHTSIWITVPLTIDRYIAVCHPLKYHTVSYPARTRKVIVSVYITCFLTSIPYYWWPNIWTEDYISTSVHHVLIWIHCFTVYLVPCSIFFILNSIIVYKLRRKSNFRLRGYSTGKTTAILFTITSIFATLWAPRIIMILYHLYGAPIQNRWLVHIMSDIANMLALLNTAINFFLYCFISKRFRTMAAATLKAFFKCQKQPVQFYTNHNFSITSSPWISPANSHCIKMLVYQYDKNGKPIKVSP
From the text: (§1) To study the influence of specific amino acids in the predicted binding pocket on receptor function, the desired mutations were introduced into an N-terminally c-myc-tagged wild type human GPR139 (NM_001002911.3) in the pEGFP-N1 vector (BD Biosciences)[32], [33]. As previously described, these plasmids carry the signal peptide of mGluR5 to promote cell surface expression followed by a c-myc epitope to enable detection of total and surface expression by ELISA, followed by an engineered MluI and NotI site for easy insertion of the receptor of interest. Furthermore, the start-codon in the GPR139 sequence was deleted to ensure c-myc-tagging. […]
(§2) The Ca^2+ measurements were preformed using the Fluo-4 NW Calcium Assay Kit (Invitrogen, Molecular Probes, F36206) as previously described. […] Intracellular calcium changes were recorded as indicated on either a NOVOstar (BMG Labtech) at 37 °C with an excitation filter of 485 nm and an emission filters 520 nm or a FlexStation 3 Benchtop Multi-Mode Microplate Reader (Molecular Devices) at 37 °C with an excitation wavelength of 485 nm and emission of 525 nm.
(§3) All pharmacological data have been analyzed by using Prism 6.0 (GraphPad Software Inc., San Diego). […] Changes in potency (pEC50) and span of myc-GPR139(WT) in comparison to untagged GPR139(WT) was statistically analyzed with a paired t-test and significance was accepted at p < 0.05. […]

GPR139 E105Q3x29 = target: T2, GPR139 E105Q3x29 (Homo sapiens, UniProt Q6DWJ6, E105Q); test: Fluo-4 Ca2+-assay, GPR139 mutant E105Q
T2 construct: mGluR5 signal peptide (N); expressed in transfected cells; host or cells: HEK293
T2 sequence (Q6DWJ6 2-353 E105Q limits assumed): T1 sequence (Q6DWJ6 2-353 L87F limits assumed) with F86L, E104Q
From the text: as §1, §2, §3

GPR139 L87A2x64 = target: T3, GPR139 L87A2x64 (Homo sapiens, UniProt Q6DWJ6, L87A); test: Fluo-4 Ca2+-assay, GPR139 mutant L87A
T3 construct: mGluR5 signal peptide (N); expressed in transfected cells; host or cells: HEK293
T3 sequence (Q6DWJ6 2-353 L87A limits assumed): T1 sequence (Q6DWJ6 2-353 L87F limits assumed) with F86A
From the text: To study the influence of specific amino acids in the predicted binding pocket on receptor function, the desired mutations were introduced into an N-terminally c-myc-tagged wild type human GPR139 (NM_001002911.3) in the pEGFP-N1 vector (BD Biosciences)[32], [33]. As previously described, these plasmids carry the signal peptide of mGluR5 to promote cell surface expression followed by a c-myc epitope to enable detection of total and surface expression by ELISA, followed by an engineered MluI and NotI site for easy insertion of the receptor of interest. Furthermore, the start-codon in the GPR139 sequence was deleted to ensure c-myc-tagging. Mutagenesis was designed in Serial Cloner 2.6 (© Franck Perez [SerialBasics]) and carried out by GenScript (USA). All mutated residues are illustrated in Supplementary Fig. 1b. An untagged GPR139(WT) in pEGFP-N1 was also generated to ensure that the c-myc-tag had no influence on GPR139(WT) function.
All GPR139 mutants were transfected into HEK293 cells. The HEK293 cells were grown in Dulbecco’s modified Eagle’s medium (DMEM) (Gibco, 41965) supplemented with 10% dialyzed fetal bovine serum (Gibco, 26400, United States origin), 100 units/mL penicillin and 100 μg/mL streptomycin (Gibco, 15140). HEK293 cells were reverse transfected using Lipofectamine2000 (Invitrogen). […]
as §2, §3

For COc1cc(OC)cc(C(=O)NNC(=O)Nc2cccc3ccccc23)c1 [Compound 1a], the EC50 (GPR139 L87F2x64; L87F mutant) was 0.427 µM, the Emax (GPR139 L87F2x64; L87F, normalized to buffer (0%) and 8 µM 1a (100%)) was 97 ± 14% and the EC50 (GPR139 E105Q3x29; E105Q mutant) was 0.145 µM. For the same compound, the Emax (GPR139 E105Q3x29; E105Q, normalized to buffer (0%) and 8 µM 1a (100%)) was 177 ± 36%, the EC50 (GPR139 L87A2x64; L87A mutant) was 0.479 µM and the change of potency (GPR139 L87A2x64; L87A mutant versus WT (reduced surface expression)) was “equipotent”. The Emax (GPR139 L87A2x64; L87A, normalized to buffer (0%) and 8 µM 1a (100%)) was 75 ± 17%.

— publication PMC5430874 (Scientific Reports, 2017)
